Where a name gives a salt, the structure may show the parent alone. Read-outs that look alike come from different tables or passages of the source.
What was measured:
[1] = biological target: T1, PI 3-kinase alpha (Homo sapiens, UniProt P42336); experiment: Kinase Glo Luminescent Kinase Assay (Kglo), assay A; assay type: biochemical; conditions: read-out: Assay A PI3Kα IC50
Target sequence in this assay (P42336 whole entry): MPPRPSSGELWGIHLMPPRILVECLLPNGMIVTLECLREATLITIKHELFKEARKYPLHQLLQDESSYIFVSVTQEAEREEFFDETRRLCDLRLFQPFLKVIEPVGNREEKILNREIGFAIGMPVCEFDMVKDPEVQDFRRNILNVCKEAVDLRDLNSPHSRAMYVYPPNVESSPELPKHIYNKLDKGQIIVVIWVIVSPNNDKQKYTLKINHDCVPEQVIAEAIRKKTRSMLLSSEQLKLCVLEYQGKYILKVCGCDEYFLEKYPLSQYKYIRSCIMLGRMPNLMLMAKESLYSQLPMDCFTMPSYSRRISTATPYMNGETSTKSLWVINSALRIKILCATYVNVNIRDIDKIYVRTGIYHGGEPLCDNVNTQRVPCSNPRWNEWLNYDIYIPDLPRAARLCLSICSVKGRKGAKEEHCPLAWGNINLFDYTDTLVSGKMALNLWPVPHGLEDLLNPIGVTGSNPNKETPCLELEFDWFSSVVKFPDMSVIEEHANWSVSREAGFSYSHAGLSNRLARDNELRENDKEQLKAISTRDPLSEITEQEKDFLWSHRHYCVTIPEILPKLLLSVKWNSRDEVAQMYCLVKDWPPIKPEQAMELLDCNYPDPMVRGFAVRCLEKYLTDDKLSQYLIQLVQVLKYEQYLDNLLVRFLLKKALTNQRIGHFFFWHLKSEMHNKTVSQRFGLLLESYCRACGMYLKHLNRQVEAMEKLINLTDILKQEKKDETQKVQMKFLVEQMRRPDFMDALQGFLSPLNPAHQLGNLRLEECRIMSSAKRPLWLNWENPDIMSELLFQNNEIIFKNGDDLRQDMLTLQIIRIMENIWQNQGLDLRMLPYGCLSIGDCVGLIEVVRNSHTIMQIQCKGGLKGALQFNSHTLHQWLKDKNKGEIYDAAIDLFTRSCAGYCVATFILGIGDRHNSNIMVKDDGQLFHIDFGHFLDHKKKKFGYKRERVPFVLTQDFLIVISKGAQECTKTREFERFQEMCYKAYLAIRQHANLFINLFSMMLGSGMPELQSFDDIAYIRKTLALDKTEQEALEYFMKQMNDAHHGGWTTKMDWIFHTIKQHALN

[2] = biological target: T2, PI 3-kinase delta (Homo sapiens, UniProt O00329); experiment: Cellular assay J1, p-Akt (S473) in Rat-1 cells, Surefire format; assay type: cell-based; conditions: non-asterisked data: version J1 (Surefire format), Rat-1 cells; read-out: Assay J PI3Kδ IC50
Target sequence in this assay (O00329 whole entry): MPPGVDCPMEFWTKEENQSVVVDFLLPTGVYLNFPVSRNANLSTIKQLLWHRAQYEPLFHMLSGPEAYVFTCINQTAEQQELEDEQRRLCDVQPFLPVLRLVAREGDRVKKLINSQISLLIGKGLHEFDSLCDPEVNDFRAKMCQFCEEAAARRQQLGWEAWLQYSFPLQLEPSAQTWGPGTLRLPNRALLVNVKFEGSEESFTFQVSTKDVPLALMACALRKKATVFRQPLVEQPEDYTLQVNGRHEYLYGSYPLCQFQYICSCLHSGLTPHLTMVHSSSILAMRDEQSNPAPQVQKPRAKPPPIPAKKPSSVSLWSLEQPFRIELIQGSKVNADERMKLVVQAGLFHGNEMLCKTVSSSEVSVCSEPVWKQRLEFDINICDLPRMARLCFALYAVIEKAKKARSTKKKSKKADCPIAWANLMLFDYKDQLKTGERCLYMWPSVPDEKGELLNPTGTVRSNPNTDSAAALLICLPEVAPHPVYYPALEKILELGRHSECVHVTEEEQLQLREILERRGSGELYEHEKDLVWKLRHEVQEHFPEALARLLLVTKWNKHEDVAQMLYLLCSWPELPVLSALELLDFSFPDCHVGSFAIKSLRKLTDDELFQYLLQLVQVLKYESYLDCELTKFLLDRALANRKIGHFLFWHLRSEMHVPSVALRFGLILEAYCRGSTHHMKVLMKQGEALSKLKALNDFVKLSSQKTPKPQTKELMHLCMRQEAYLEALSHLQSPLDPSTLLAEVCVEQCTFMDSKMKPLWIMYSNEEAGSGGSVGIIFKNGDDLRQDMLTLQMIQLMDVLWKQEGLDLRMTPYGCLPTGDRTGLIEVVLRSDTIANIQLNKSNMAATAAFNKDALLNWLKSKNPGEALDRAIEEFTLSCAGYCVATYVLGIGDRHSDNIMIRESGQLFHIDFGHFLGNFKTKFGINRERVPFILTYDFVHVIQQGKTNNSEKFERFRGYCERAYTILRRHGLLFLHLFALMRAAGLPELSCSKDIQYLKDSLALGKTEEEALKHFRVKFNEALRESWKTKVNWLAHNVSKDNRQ
Target sequence in this assay (Q63787 whole entry partner): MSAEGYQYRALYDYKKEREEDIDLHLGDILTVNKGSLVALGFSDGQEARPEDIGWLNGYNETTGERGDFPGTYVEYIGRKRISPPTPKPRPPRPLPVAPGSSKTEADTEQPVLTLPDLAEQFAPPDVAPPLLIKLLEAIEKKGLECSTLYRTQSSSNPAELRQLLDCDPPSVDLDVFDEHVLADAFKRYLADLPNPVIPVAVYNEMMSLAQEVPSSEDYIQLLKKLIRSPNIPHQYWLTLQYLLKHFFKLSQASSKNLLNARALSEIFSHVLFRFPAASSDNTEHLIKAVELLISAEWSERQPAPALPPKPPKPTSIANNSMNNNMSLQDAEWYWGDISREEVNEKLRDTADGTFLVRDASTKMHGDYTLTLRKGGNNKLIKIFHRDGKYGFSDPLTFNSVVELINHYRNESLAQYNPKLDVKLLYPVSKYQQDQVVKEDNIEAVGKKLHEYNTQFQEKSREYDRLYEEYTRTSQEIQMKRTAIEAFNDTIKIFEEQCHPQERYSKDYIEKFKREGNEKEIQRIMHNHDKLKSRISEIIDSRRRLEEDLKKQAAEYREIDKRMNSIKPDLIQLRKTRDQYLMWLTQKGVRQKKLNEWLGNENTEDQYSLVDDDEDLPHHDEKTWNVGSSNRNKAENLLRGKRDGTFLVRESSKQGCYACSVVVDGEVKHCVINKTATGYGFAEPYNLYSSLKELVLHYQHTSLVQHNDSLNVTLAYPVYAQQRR
Source text: Cellular Assays for PI 3-Kinase Alpha (H1), Beta (I1) and Delta (J1): Surefire Format
AlphaScreen (Amplified Luminescent Proximity Homogeneous Assay, ALPHA, Perkin Elmer) is a non-radioactive bead-based proximity assay technology to study biomolecular interactions in a homogenous microtiter plate format. The brand name SureFire denotes AlphaScreen assays that are adapted to quantify the phosphorylation of endogenous cellular proteins in cell lysates, by using matched antibody pairs, which consist of an anti-phospho-kinase and an anti-kinase antibody. The assay allows characterization of kinase signaling in cells as well as measurement of kinase inhibitor effects.
Using Rat-1 cells stably expressing myr-HA-tagged versions of the human PI3Kdelta, PI3Kalpha, or PI3Kbeta p110 catalytic subunit isoforms, the assay was developed as a two-plate protocol in a 384-well format.
For compound testing, the cells were seeded at a density of 4000 (Rat-1_PI3Kdelta), 7500 (Rat-1_PI3Kalpha), or 6200 (Rat-1_PI3Kbeta) cells in 20 μl complete growth medium into cell culture treated 384-well plates and were grown at 37° C./5% CO2/90% humidity for 24 h. Shortly before compound transfer, the complete medium was removed, 30 μl assay buffer (DMEM high glucose, 1×MEM NEAA, 10 mM HEPES, 2 mM L-glutamine, 0.1% (w/v) BSA) was added and 10 μl of the compound predilutions were transferred to the cells.

[3] = biological target: T3, PI 3-kinase beta (Homo sapiens, UniProt P42338); experiment: Cellular assay I1, p-Akt (S473) in Rat-1 cells, Surefire format; assay type: cell-based; conditions: non-asterisked data: version I1 (Surefire format), Rat-1 cells; read-out: Assay I PI3Kβ IC50
[4] = biological target: T4, PI 3-kinase gamma (Homo sapiens, UniProt P48736); experiment: Cellular U937 AKT assay K1 (MSD); assay type: cell-based; conditions: U937 cells, K1 format; read-out: Assay K1 PI3Kγ IC50
T4 sequence (P48736 whole entry): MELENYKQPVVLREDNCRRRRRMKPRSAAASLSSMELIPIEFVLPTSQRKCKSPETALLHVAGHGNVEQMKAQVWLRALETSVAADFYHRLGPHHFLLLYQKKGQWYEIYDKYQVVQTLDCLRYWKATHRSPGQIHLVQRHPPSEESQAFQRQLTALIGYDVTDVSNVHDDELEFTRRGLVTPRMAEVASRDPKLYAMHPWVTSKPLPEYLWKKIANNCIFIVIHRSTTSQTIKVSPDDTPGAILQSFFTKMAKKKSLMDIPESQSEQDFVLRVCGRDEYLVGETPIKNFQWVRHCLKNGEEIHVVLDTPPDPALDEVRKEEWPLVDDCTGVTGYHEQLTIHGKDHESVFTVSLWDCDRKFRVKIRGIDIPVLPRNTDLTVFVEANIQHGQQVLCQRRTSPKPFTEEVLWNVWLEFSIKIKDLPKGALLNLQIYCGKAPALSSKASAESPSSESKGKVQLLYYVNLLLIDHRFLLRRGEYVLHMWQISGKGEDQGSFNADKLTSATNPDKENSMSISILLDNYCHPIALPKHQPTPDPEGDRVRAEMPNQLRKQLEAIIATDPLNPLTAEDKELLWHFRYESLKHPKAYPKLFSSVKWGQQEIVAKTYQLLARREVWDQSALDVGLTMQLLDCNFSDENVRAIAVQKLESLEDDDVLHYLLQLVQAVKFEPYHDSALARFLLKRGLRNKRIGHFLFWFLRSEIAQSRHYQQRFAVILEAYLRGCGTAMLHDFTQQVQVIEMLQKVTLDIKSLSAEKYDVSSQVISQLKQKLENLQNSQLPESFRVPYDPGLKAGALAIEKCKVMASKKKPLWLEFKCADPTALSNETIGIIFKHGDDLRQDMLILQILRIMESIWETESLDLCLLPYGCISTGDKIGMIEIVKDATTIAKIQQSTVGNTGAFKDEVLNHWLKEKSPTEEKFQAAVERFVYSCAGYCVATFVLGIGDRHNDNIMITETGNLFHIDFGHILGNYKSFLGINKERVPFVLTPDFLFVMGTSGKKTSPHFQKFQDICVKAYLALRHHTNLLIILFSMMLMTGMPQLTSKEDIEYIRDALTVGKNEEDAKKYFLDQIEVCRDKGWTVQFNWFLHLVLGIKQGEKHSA

[5] = biological target: Vps34 (Homo sapiens, UniProt Q8NEB9); experiment: Kinase Glo Luminescent Kinase Assay (Kglo), assay C; assay type: biochemical; conditions: read-out: Assay C VPS34 IC50
Vps34, sequence (Q8NEB9 whole entry, species assumed): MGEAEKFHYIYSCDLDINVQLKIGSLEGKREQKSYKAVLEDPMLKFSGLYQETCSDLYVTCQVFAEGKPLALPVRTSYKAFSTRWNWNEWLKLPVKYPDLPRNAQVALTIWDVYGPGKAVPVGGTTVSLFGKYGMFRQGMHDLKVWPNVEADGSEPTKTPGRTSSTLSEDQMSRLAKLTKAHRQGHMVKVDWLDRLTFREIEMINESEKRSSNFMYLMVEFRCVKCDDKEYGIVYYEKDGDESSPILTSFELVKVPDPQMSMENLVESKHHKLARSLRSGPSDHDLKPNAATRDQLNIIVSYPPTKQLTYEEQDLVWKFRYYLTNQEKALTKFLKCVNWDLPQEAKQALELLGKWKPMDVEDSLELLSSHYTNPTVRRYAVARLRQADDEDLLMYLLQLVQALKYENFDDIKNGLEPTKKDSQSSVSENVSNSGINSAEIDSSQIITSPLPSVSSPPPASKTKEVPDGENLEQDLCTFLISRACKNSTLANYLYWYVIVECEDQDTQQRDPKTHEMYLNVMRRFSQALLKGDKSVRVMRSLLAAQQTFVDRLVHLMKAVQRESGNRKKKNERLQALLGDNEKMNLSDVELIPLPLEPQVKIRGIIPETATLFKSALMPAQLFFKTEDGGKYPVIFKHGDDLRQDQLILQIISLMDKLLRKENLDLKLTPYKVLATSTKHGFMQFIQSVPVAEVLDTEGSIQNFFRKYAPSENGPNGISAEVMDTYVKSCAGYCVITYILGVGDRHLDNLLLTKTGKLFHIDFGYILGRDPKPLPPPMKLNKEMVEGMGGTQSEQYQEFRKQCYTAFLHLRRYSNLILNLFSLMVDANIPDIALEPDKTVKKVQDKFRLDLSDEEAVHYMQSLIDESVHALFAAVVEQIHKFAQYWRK

[6] = biological target: T4, PI 3-kinase gamma; experiment: TR-FRET Adapta assay, assay E; assay type: biochemical; conditions: read-out: Assay E PI3Kγ IC50
[7] = biological target: T2, PI 3-kinase delta; experiment: TR-FRET Adapta assay, assay F; conditions: read-out: Assay F PI3Kδ IC50
Target sequence in this assay (O00329 whole entry): as the sequence (O00329 whole entry) above
Target sequence in this assay (P27986 461-568 partner): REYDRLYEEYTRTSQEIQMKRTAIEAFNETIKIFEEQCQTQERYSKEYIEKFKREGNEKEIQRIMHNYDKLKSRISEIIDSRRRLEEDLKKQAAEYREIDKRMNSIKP

[8] = biological target: PI 4-kinase beta (Homo sapiens, UniProt Q9UBF8); experiment: Kinase Glo Luminescent Kinase Assay (Kglo), assay D; assay type: biochemical; conditions: read-out: Assay D PI4Kβ IC50
[9] = biological target: T3, PI 3-kinase beta; experiment: Kinase Glo Luminescent Kinase Assay (Kglo), assay B; assay type: biochemical; conditions: read-out: Assay B PI3Kβ IC50
[10] = test system: IL-8-induced neutrophil shape change in human whole blood; experiment: Whole blood neutrophil shape change assay (L); assay type: cell-based; conditions: IL-8, human whole blood, read-out: Assay L WBSC IC50
[11] = biological target: mTOR (Homo sapiens, UniProt P42345); experiment: Lanthascreen kinase binding assay, assay G; conditions: read-out: Assay G mTOR IC50
Procedure: Lanthascreen™ Kinase Binding Assay for mTOR (G)
Binding of an inhibitor to the kinase competes for binding with the tracer, resulting in a loss of FRET.
50 nL of compound dilutions were dispensed onto white 384-well small volume polystyrene plate.

[12] = biological target: T1, PI 3-kinase alpha; experiment: Cellular assay H1, p-Akt (S473) in Rat-1 cells, Surefire format; assay type: cell-based; conditions: non-asterisked data: version H1 (Surefire format), Rat-1 cells; read-out: Assay H PI3Kα IC50
Target sequence in this assay (P42336 whole entry): as the sequence (P42336 whole entry) above
Target sequence in this assay (Q63787 whole entry partner): as the sequence (Q63787 whole entry partner) above

[13] = Microsomal clearance assay (M); conditions: intrinsic clearance in rat liver microsomes
Procedure: The experiments were performed in 96-well glass plates at 37° C. on an automated Tecan EVO platform. Test compounds at a concentration of 10 mM in pure DMSO were diluted 1:1000 in water to 10 μM. […] Reactions were initiated by the addition of 150 μL of a cofactor solution containing 2 mM NADPH.

Structure (SMILES) | IC50 [1] [nM] | IC50 [2] [nM] | IC50 [3] [nM] | IC50 [4] [nM] | IC50 [5] [nM] | IC50 [6] [nM] | IC50 [7] [nM] | IC50 [8] [nM] | IC50 [9] [nM] | IC50 ([10]; Homo sapiens, Neutrophil) [nM] | IC50 [11] [nM] | IC50 [12] [nM] | Assay M RLM CI(int) [13] [µL/min/mg] | IC50 [10] [nM]
Cc1ccc(S(=O)(=O)NCCC(C)(C)O)cc1-c1cnc(N)c(-c2cnn(Cc3ccccc3)c2)n1 [Example 132, 3-(5-Amino-6-(1-benzyl-1H-pyrazol-4-yl)pyrazin-2-yl)-N-(3-hydroxy-3-methylbutyl)-4-methylbenzenesulfonamide hydrochloride] | 180 | 350 | 6050 | 74 | > 9100 | 17 | 50 | 2260 | > 9100 | 449 | > 9100 | 1280 | – | –
Cc1cn(-c2nc(-c3cc(S(=O)(=O)NCCC(C)(C)O)ccc3C)cnc2N)cn1 [Example 63, 3-(5-Amino-6-(4-methyl-1H-imidazol-1-yl)pyrazin-2-yl)-N-(3-hydroxy-3-methylbutyl)-4-methylbenzenesulfonamide] | 330 | 3250 | – | 163 | > 9100 | 68 | 420 | 7850 | 3930 | 626 | 6500 | 2970 | 44 | –
Cc1ccc(S(=O)(=O)NCCC(C)(C)O)cc1-c1cnc(N)c(-n2cccn2)n1 [Example 62, 3-(5-Amino-6-(1H-pyrazol-1-yl)pyrazin-2-yl)-N-(3-hydroxy-3-methylbutyl)-4-methylbenzenesulfonamide] | 680 | 970 | – | 110 | > 9100 | 56 | 210 | 3680 | 1010 | 7910 | > 9100 | 1440 | 155 | –
Cc1ccc(S(=O)(=O)NC2(CO)CC2)cc1-c1cnc(N)c(-n2cncn2)n1 [Example 98, 3-(5-Amino-6-(1H-1,2,4-triazol-1-yl)pyrazin-2-yl)-N-(1-(hydroxymethyl)cyclopropyl)-4-methylbenzenesulfonamide] | 1700 | – | – | 200 | > 9100 | 38 | 310 | 2500 | 1400 | 4170 | > 9100 | – | 31 | –
Cc1ccc(S(=O)(=O)NC2CC3(CC(O)C3)C2)cc1-c1cnc(N)c(-c2cn(C)nc2C)n1 (single isomer, unassigned) [Example 9a, (R)-3-[5-Amino-6-(1,3-dimethyl-1H-pyrazol-4-yl)-pyrazin-2-yl]-N-(6-hydroxy-spiro[3.3]hept-2-yl)-4-methyl-benzenesulfonamide or (S)-3-[5-Amino-6-(1,3-dimethyl-1H-pyrazol-4-yl)-pyrazin-2-yl]-N-(6-hydroxy-spiro[3.3]hept-2-yl)-4-methyl-benzenesulfonamide] | – | 3530 | > 10000 | 40 | > 10000 | 15 | 200 | – | 540 | – | 8100 | – | 34 | 327
Cc1ccc(S(=O)(=O)N[C@H]2CC[C@@H](O)CC2)cc1-c1cnc(N)c(-c2cnn(C)c2)n1 [Example 75, 3-(5-Amino-6-(1-methyl-1H-pyrazol-4-yl)pyrazin-2-yl)-N-((1s,4s)-4-hydroxycyclohexyl)-4-methylbenzenesulfonamide] | 470 | 7800 | – | 91 | 7490 | 56 | 240 | 7970 | 2480 | 830 | 4510 | > 10000 | 13 | –
Cc1ccc(S(=O)(=O)NCC(F)F)cc1-c1cnc(N)c(-n2cncn2)n1 [Example 34, 3-(5-Amino-6-[1,2,4]triazol-1-yl-pyrazin-2-yl)-N-(2,2-difluoro-ethyl)-4-methyl-benzenesulfonamide] | 700 | – | – | 137 | > 10000 | 74 | 2900 | 3800 | 2500 | 805 | 2500 | – | 52 | –
Cc1ccc(S(=O)(=O)N[C@H]2CC[C@H](O)CC2)cc1-c1cnc(N)c(-c2cnn(C)c2)n1 [Example 58, Trans-3-(5-Amino-6-(1-methyl-1H-pyrazol-4-yl)pyrazin-2-yl)-N-(-4-hydroxycyclohexyl)-4-methylbenzenesulfonamide] | 490 | 2460 | – | 73 | 3100 | 19 | 100 | 5850 | 2930 | 385 | > 9100 | 8580 | 14 | –
Cc1ccc(S(=O)(=O)NCCC(C)(C)O)cc1-c1cnc(N)c(-c2ccc(CO)s2)n1 [Example 119.35] | 80 | – | – | 18 | > 9100 | 13 | 70 | 740 | 940 | 1020 | 3900 | – | 78 | –

Second part, led by results:

IC50 [1] [nM] | IC50 [2] [nM] | IC50 [3] [nM] | IC50 [4] [nM] | IC50 [5] [nM] | IC50 [6] [nM] | IC50 [7] [nM] | IC50 [8] [nM] | IC50 [9] [nM] | IC50 ([10]; Homo sapiens, Neutrophil) [nM] | IC50 [11] [nM] | IC50 [12] [nM] | Assay M RLM CI(int) [13] [µL/min/mg] | Structure (SMILES) | IC50 [10] [nM]
540 | 970 | 7960 | 102 | > 9100 | 16 | 160 | > 9100 | 8390 | 565 | 8300 | 1080 | – | CCc1noc(-c2nc(-c3cc(S(=O)(=O)N[C@H]4CC[C@H](O)CC4)ccc3C)cnc2N)n1 [Example 139, Trans-3-[5-Amino-6-(3-ethyl-[1,2,4]oxadiazol-5-yl)-pyrazin-2-yl]-N-(4-hydroxy-cyclohexyl)-4-methyl-benzene sulfonamide] | –
2600 | – | – | 487 | > 10000 | 81 | 920 | > 10000 | 7300 | 1530 | > 10000 | – | 59 | Cc1cc(C)n(-c2nc(-c3cc(S(=O)(=O)NCC(C)(C)O)ccc3C)cnc2N)n1 [Example 48, 3-(5-Amino-6-(3,5-dimethyl-1H-pyrazol-1-yl)pyrazin-2-yl)-N-(2-hydroxy-2-methylpropyl)-4-methyl benzenesulfonamide] | –
600 | 1170 | 8330 | 394 | > 9100 | 46 | 140 | > 9100 | 5880 | 1110 | > 9100 | 1040 | – | Cc1noc(-c2nc(-c3cc(S(=O)(=O)NCCC(C)(C)O)ccc3C)cnc2N)n1 [Example 3, 3-[5-Amino-6-(3-methyl-[1,2,4]oxadiazol-5-yl)-pyrazin-2-yl]-N-(3-hydroxy-3-methyl-butyl)-4-methyl-benzenesulfonamide] | –
900 | – | – | 262 | > 9550 | 36 | 730 | > 9550 | 4100 | 1590 | 7400 | – | 53 | Cc1ccc(S(=O)(=O)NCC(C)(C)O)cc1-c1cnc(N)c(-c2nc(C3CC3)no2)n1 [Example 95, 3-(5-Amino-6-(3-cyclopropyl-1,2,4-oxadiazol-5-yl)pyrazin-2-yl)-N-(2-hydroxy-2-methylpropyl)-4-methylbenzenesulfonamide] | –
250 | – | – | 98 | > 10000 | 77 | 400 | 4550 | 1700 | 2880 | > 10000 | – | 106 | Cc1csc(-c2nc(-c3cc(S(=O)(=O)NCC(C)(C)O)ccc3C)cnc2N)n1 [Example 80, 3-(5-Amino-6-(4-methylthiazol-2-yl)pyrazin-2-yl)-N-(2-hydroxy-2-methylpropyl)-4-methylbenzenesulfonamide] | –
710 | – | – | 200 | > 9100 | 69 | 360 | 880 | 2340 | 2240 | > 9100 | – | 41 | Cc1ccc(S(=O)(=O)NCCC(C)(C)O)cc1-c1cnc(N)c(-c2cc[nH]n2)n1 [Example 119.42] | –

Reference: patent US10004732B2 (Novartis AG, priority 2014, dated 2018)
